The values that follow come from article PMC7004565, “Nucleotide inhibition of the pancreatic ATP-sensitive K^+ channel explored with patch-clamp fluorometry” (eLife, 2020).

Assay [1] addresses T1, Kir6.2*-GFP + SUR-K205E (Homo sapiens, UniProt Q14654).
T1 construct: ANAP labelling is specific and only full-length Kir6.2 is expressed at the cell membrane; expressed in transfected cells; host or cells: HEK-293T
As to the kind of experiment: Current inhibition in excised inside-out patches (patch-clamp fluorometry). Format: biochemical. Particulars: Mg2+-free, Hill fit. The source says: (§1) We introduced a charge neutralization (alanine, K205A) and a charge reversal (glutamate, K205E) mutation at this position and measured simultaneous nucleotide binding and current inhibition with PCF (Figure 4B,C,D). The binding and inhibition curves for TNP-ATP almost perfectly overlaid for the SUR1-K205A mutant (Figure 4C). The same was also true for SUR1-K205E (Figure 4D). Data were fit with the MWC-type model as before. […] This was reflected by a decrease in the estimated KA for TNP-ATP, which correlated with the degree of conservation of the mutation, that is we observed a larger effect for the charge reversal compared to the charge neutralization mutation (Figure 4E). However, in addition to direct effects of K205 on nucleotide binding, we also observed a shift in D for both mutations (Figure 4E).
(§2) Currents were measured as described above.
A general note: Patch clamp records ionic current or voltage across a cell membrane.

Assay [2] addresses T2, Kir6.2*-GFP + SUR-K205A (Homo sapiens, UniProt Q14654).
T2 construct: ANAP labelling is specific and only full-length Kir6.2 is expressed at the cell membrane; expressed in transfected cells; host or cells: HEK-293T
Described as above. Particulars: Mg2+-free, Hill fit. Format: biochemical.
From the text: as §1, §2

Assay [3] concerns the target T1, Kir6.2*-GFP + SUR-K205E. As to the kind of experiment: ANAP fluorescence quenching in excised patches (patch-clamp fluorometry). It is filed as binding. Particulars: excised patches (PCF), Hill fit.
From the text: as §1, §2
(§3) ANAP bleaching was corrected as for the unroofed binding experiments with Equation 1 (Figure 2—figure supplement 3A). Due to the lower signal-to-noise ratio for PCF compared to the unroofed membranes, we performed experiments from both high-to-low and low-to-high TNP-ATP concentrations to minimise artifacts from our bleaching corrections.

For assay [4], the target named is T2, Kir6.2*-GFP + SUR-K205A. Described as above. Format: binding. Particulars: excised patches (PCF), Hill fit.
From the text: as §1, §2, §3

pEC50, pIC50: −log10 of the molar value.

T2 sequence (Q14654 whole entry, stated change not applied): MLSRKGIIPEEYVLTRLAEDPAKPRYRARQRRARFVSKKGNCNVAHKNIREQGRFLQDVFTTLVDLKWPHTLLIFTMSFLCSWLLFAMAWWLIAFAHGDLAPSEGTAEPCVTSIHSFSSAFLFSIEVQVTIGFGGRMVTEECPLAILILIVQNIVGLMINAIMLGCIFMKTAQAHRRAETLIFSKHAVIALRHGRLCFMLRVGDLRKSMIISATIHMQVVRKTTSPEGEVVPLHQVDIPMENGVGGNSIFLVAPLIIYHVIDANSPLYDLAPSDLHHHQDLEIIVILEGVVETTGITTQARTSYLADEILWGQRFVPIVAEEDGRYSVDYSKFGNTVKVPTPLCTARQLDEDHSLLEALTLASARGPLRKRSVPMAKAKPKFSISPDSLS
T2 sequence (Q09428 whole entry K205A partner): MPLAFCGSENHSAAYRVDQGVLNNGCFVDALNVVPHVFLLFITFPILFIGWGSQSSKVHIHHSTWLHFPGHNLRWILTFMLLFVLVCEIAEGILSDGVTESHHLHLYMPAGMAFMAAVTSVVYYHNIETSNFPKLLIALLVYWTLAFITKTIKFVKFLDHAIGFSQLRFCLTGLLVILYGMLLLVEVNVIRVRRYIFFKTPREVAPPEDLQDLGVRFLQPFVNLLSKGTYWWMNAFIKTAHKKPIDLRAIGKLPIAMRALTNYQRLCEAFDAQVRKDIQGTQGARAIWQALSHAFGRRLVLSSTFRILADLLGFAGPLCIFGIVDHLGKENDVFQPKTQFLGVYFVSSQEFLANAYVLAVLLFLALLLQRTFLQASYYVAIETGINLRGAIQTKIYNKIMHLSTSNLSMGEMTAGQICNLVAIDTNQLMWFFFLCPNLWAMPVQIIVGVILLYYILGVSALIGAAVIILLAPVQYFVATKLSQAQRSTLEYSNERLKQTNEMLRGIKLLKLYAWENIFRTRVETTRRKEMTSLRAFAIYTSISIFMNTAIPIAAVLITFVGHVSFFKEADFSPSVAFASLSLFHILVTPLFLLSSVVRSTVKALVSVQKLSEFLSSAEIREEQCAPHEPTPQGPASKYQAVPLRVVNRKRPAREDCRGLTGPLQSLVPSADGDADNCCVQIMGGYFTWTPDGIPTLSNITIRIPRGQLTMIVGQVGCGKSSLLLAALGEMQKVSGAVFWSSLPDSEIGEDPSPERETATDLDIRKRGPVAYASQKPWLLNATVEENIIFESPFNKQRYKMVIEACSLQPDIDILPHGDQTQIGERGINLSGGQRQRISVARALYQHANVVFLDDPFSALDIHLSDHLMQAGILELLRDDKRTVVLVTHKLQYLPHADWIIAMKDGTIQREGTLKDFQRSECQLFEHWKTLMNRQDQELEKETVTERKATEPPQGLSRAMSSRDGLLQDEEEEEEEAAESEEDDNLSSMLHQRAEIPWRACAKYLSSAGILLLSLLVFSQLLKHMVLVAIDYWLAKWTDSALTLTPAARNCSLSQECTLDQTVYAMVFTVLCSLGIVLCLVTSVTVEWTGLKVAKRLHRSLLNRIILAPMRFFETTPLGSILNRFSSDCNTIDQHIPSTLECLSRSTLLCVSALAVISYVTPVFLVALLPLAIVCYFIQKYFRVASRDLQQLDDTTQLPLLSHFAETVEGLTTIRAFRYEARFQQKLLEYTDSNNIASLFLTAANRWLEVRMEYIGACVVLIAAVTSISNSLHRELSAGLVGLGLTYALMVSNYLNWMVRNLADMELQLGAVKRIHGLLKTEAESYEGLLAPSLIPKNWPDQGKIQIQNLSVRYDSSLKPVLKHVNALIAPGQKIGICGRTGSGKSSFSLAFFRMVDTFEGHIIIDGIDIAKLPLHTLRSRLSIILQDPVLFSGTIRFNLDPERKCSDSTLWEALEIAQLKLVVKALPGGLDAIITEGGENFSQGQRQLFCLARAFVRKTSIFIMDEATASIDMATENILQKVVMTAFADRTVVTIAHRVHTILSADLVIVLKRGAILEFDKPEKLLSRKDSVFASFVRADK
T1 sequence (Q14654 whole entry, stated change not applied): as the sequence (Q14654 whole entry, stated change not applied) above
T1 sequence (Q09428 whole entry K205E partner): as the sequence (Q09428 whole entry K205A partner) above, with A205E counted along it

Regarding `Nc1ncnc2c1ncn2[C@@H]1O[C@H](COP(=O)(O)OP(=O)(O)OP(=O)(O)O)[C@H]2OC3(O[C@H]21)C([N+](=O)[O-])=CC(=[N+]([O-])[O-])C=C3[N+](=O)[O-]` (stereo partly shown) [TNP-ATP, trinitrophenyl-ATP], the “h (Hill coefficient) current inhibition” value stood at 0.79 at Kir6.2*-GFP + SUR-K205E [1] and 0.75 on Kir6.2*-GFP + SUR-K205A [2]. For the same compound, the values for the pIC50 at Kir6.2*-GFP + SUR-K205E [1] (n = 9) and on Kir6.2*-GFP + SUR-K205A [2] (n = 9) were 3.20 and 3.78, respectively. Besides, the “h (Hill coefficient) fluorescence quenching” value on Kir6.2*-GFP + SUR-K205E [3] is 0.74; on Kir6.2*-GFP + SUR-K205A [4], 0.73. Besides, the Emax on Kir6.2*-GFP + SUR-K205E [3] (fraction) and at Kir6.2*-GFP + SUR-K205A [4] (fraction) was 100% each time. Besides, the values for the pEC50 on Kir6.2*-GFP + SUR-K205E [3] (n = 9) and on Kir6.2*-GFP + SUR-K205A [4] (n = 9) were 3.37 and 3.69, respectively.

In general, pIC50 refers to −log10 of the IC50, conventionally taken in molar units. In general, Emax refers to the size of the effect at its maximum, as opposed to the concentration needed. What is called pEC50 is the EC50 on a negative log10 scale, so that one unit is a factor of ten.
